Results taken from patent US20180000798A1, “USE OF ACLIDINIUM” (Almirall, S.A., priority 2012, published 2018).
Like-named read-outs stand apart in the source and are kept apart here.

Tests used:
[1] = Solubility of aclidinium bromide; assay type: physicochemical
Description: Aclidinium bromide is a white powder with a molecular formula of C26H30NO4S2Br and a molecular mass of 564.56.

[2] = tested on: patients with moderate to severe COPD; assay: Phase III randomized, double-blind, placebo controlled crossover trial; physical activity measured with multisensor armband; assay type: in vivo; settings: week 3; for Δ Comparison versus placebo, change from baseline in daily active energy expenditure / Δ Comparison versus placebo, change from baseline in duration of at least moderate activity: 400 micrograms aclidinium bromide per inhalation twice-daily, p < 0.05
Description: In a Phase III randomized, double-blind, placebo controlled, 2 period crossover trial, patients with moderate to severe COPD received a dose of aclidinium equivalent to a metered nominal dose of 400 micrograms of aclidinium bromide per inhalation twice-daily (in the morning, 9 am, and in the evening, […]) and placebo for two periods of 3 weeks, with a washout period of 2 weeks between treatment periods.
Patients were randomised to receive either a dose of aclidinium equivalent to a metered nominal dose of 400 micrograms of aclidinium bromide per inhalation twice-daily in the first period followed by placebo in the second period, or to receive placebo in the first period followed by aclidinium bromide 400 micrograms twice-daily in the second period. Both aclidinium bromide and placebo were administered with a Genuair® multidose dry powder inhaler.
Physical activity (as minutes of at least moderate activity per day and as average active energy expenditure expressed in Kcal) was measured in the last week of the treatment with aclidinium and placebo using a multisensor armband (SenseWear™ Pro Armband; BodyMedia, Pittsburgh, Pa., USA), was worn on the upper right over the triceps muscle, according to the method described in Watz B et al, Eur Respir J, 2009; 33: 262-272. The multisensory armband incorporates a biaxial accelerometer that records steps per day and physiological sensors of energy expenditure.
A valid period of measurement was defined as 5 days of measurement with the patients wearing the accelerometer at least 22 hours per day.
The Intention-to-Treat (ITT) population included 109 patients.

patients with COPD = settings: previous trials, cited from earlier work
[3] = metered nominal dose 400 micrograms aclidinium bromide per inhalation twice-daily, adjusted mean, n = 85

Row | Compound | Solubility in ethanol ([1]; ethanol) | Solubility in methanol ([1]; methanol) | Solubility in water ([1]; water) | Δ Comparison versus placebo, change from baseline in daily active energy expenditure [2] | Δ Comparison versus placebo, change from baseline in duration of at least moderate activity [2] | Δ Comparison versus placebo, change from baseline in daily active energy expenditure ([2]; listed as aclidinium bromide) [kcal] | Δ Comparison versus placebo, change from baseline in duration of at least moderate activity ([2]; listed as aclidinium bromide) [min] | Change from baseline in daily active energy expenditure [2, 3] [kcal] | Change from baseline in duration of at least moderate activity [2, 3] [min] | Improvement in physical activity versus placebo (patients with COPD; listed as tiotroplum) | Improvement in physical activity versus placebo (patients with COPD)
1 | O=C(O[C@H]1C[N+]2(CCCOc3ccccc3)CCC1CC2)C(O)(c1cccs1)c1cccs1 [Aclidinium, 3(R)-(2-hydroxy-2,2-dithien-2-ylacetoxy)-1-(3-phenoxypropyl)-1-azoniabicyclo[2.2.2] octane] | very slightly soluble | sparingly soluble | very slightly soluble | 55 (p < 0.05) Kcal | 10 (p < 0.05) minutes | 55 | 10 | 21.9 | 4.2 | – | –
2 | C[N+]1(C)[C@@H]2C[C@@H](OC(=O)C(O)(c3cccs3)c3cccs3)C[C@H]1[C@@H]1O[C@@H]12 [tiotropium] | – | – | – | – | – | – | – | – | – | not observed | not statistically demonstrated improvements in physical activity
